According to patent US6569638B1, “Method for screening compounds for the treatment of neoplasia” (Cell Pathways, Inc, priority 2000, dated 2003):
Read-outs that look alike come from different tables or passages of the source.

Columns and labels:
[1] = type: in vivo; conditions: for body weight gain: rat, in vivo
From the text: (§1) Thus, on a single-dose basis, Compound B is not acutely toxic.

[2] = tested on: cGMP-specific PDE from HT29 cell extracts; assay: cGMP-specific PDE inhibition; type: biochemical, human
Protocol: (Thompson, W. J., Teraski, W. L., Epstein, P. M., Strada, S. J., Advances in Cyclic Nucleotide Research, 10:69-92, 1979, which is incorporated herein by reference). In brief, a solution of defined substrate ^3H-cGMP specific activity (0.2 μM; 100,000 cpm; containing 40 mM Tris-HCl (pH 8.0), 5 mM MgCl2 and 1 mg/mL BSA) is mixed with the drug to be tested in a total volume of 400 μl. The mixture is incubated at 30° C. for 10 minutes with isolated PDE of this invention. Reactions are terminated, for example, by boiling the reaction mixture for 75 seconds. After cooling on ice, 100 μl of 0.5 mg/mL snake venom (O. Hannah venom available from Sigma) is added and incubated for 10 minutes at 30° C. This reaction is then terminated by the addition of an alcohol, e.g. 1 mL of 100% methanol. Assay samples are applied to 1 mL Dowex 1-X8 column; and washed with 1 mL of 100% methanol. The amount of radioactivity in the breakthrough and the wash from the column is combined and measured with a scintillation counter. The degree of phosphodiesterase inhibition is determined by calculating the amount of radioactivity in drug-treated reactions and comparing against a control sample (a reaction mixture lacking the tested compound but with drug solvent).

[3] = Toxicity study in dogs (capsules); type: in vivo
From the text: as §1

[4] = tested on: panel of cultured human cell lines; assay: Neutral red growth inhibition, panel of cultured human cell lines; type: cell-based; conditions: five days continuous treatment, read-out: GI50 calculated for all cell lines
Protocol: (§2) Compound B's activity is not confined to activity against colon cancer cell lines or animal models of colon cancer. It has a broad range of anti-neoplastic effects in various neoplastic cell lines. Various types of human cancer cell lines were propagated under sterile conditions in RPMI 1640 medium with 10% fetal bovine serum, 2 mM L-glutamine and sodium bicarbonate. To determine growth inhibitory effects of Compound B, cells were seeded in 96-well plates at a density of 1000 cells per well. Twenty-four hours after plating, the cells were dosed with various concentrations of the free base of Compound B solubilized in DMSO (final concentration 0.1%). The effect of the drug on tumor cell growth was determined using the neutral red cytotoxicity assay following five days of continuous treatment. Neutral red is a dye that is selectively taken up by viable cells by an ATP-dependent transport mechanism.

Molt-4 = assay: Neutral red growth inhibition; type: cell-based, human; conditions: Molt-4, Leukemia, HCl salt
Protocol: as §2, with “Twenty-four hours after plating, the cells were dosed with various concentrations of the free base of Compound B solubilized in DMSO (final concentration 0.1%).” left out

K-562 = assay: Neutral red growth inhibition; type: cell-based, human; conditions: K-562, Leukemia, HCl salt
Protocol: as §2, with “Twenty-four hours after plating, the cells were dosed with various concentrations of the free base of Compound B solubilized in DMSO (final concentration 0.1%).” left out

RPMI-8226 = assay: Neutral red growth inhibition; type: cell-based, human; conditions: RPMI-8226, Myeloma, HCl salt
Protocol: as §2, with “Twenty-four hours after plating, the cells were dosed with various concentrations of the free base of Compound B solubilized in DMSO (final concentration 0.1%).” left out

PANC-1 = assay: Neutral red growth inhibition; type: cell-based, human; conditions: PANC-1, Pancreas, HCl salt
Protocol: as §2, with “Twenty-four hours after plating, the cells were dosed with various concentrations of the free base of Compound B solubilized in DMSO (final concentration 0.1%).” left out

SW-480 cell line = assay: Tumor cell growth inhibition; type: cell-based, human
From the text: In an alternate embodiment, the method of the present invention involves further determining whether the compound reduces the growth of tumor cells. Various cell lines can be used in the sample depending on the tissue to be tested. For example, these cell lines include: SW-480—colonic adenocarcinoma; HT-29—colonic adenocarcinoma, A-427—lung adenocarcinoma carcinoma; MCF-7—breast adenocarcinoma; and UACC-375—melanoma line; and DU145—prostrate carcinoma. Cytotoxicity data obtained using these cell lines are indicative of an inhibitory effect on neoplastic lesions. These cell lines are well characterized, and are used by the United States National Cancer Institute in their screening program for new anti-cancer drugs.
A compound's ability to inhibit tumor cell growth can be measured using the HT-29 human colon carcinoma cell line obtained from ATCC. […] After six days in culture, the cells are fixed by the addition of cold trichloroacetic acid to a final concentration of 10% and protein levels are measured using the sulforhodamine B (SRB) calorimetric protein stain assay as previously described by Skehan, P., Storeng, R., Scudiero, D., Monks, A., McMahon, J., Vistica, D., Warren, J. T., Bokesch, H., Kenney, S., and Boyd, M. R., “New Colorimetric Assay For Anticancer-Drug Screening,” J. Natl. Cancer Inst. […]
Preferably, an IC50 value is determined and used for comparative purposes. […]

28-day study in rats = type: in vivo

## CC1=C(CC(=O)NCc2ccccc2)c2cc(F)ccc2/C1=C\c1ccncc1.Cl [Compound B, (Z)-5-fluoro-2-methyl-(4-pyridylidene)-3-(N-benzyl)indenylacetamide hydrochloride]
[1]; ip, 1000 mg/kg
  body weight gain: reduced body weight gain
[1]; po, 4000 mg/kg
  body weight gain: body weight gains were slightly reduced
[1]; rats
  intraperitoneal LD50: greater than 1000 mg/kg
  oral LD50: > 4000 mg/kg
[1]; rats, single oral doses up to and including 2000 mg/kg, 0.5% carboxy-methylcellulose vehicle
  signs of toxicity: no observable signs of toxicity
[2]
  IC50: 680 nM
[3]
  oral LD50: greater than 1000 mg/kg
[3]; capsules, single 1000 mg/kg
  signs of toxicity: no signs of toxicity
[3]; single dose and seven consecutive doses of 1000 mg/kg/day
  signs of drug-related effects: At no time in either dosing phase were any obvious signs of drug-related effects observed
[4]
  GI50: 1000 to 2000 nM
Molt-4
  GI50: 1600 nM
K-562
  GI50: 1800 nM
RPMI-8226
  GI50: 1200 nM
PANC-1
  GI50: 2200 nM
SW-480 cell line
  IC50: 700 nM
28-day study in rats; 28 days, 2000 mg/kg/day
  liver weights: statistically significant increase in liver weights
  thyroid weights: statistically significant increases in thyroid weights
28-day study in rats; 28 days, 50, 500 and 2000 mg/kg/day
  clinical observations: no abnormal clinical observations attributed to Compound B
